Reference: article PMC5449191 (Nature plants, 2016)

Columns and labels:
CsACT = CsACT (Cucumis sativus, UniProt A0A097IYL7); assay: acetyltransferase assay, LC-MS of product; format: biochemical; conditions: 400 μM acetyl-CoA, 400 μM substrate, pH 7.5, 31°C
CmACT = CmACT (Cucumis melo, UniProt A0A1S3CAV7); assay: acetyltransferase assay, LC-MS of product; format: biochemical; conditions: 400 μM acetyl-CoA, 400 μM substrate, pH 7.5, 31°C

SMILES | acetyltransferase assay, LC-MS of product (CsACT) | acetyltransferase assay, LC-MS of product (CmACT) | acetyltransferase assay, LC-MS of product (CmACT; product CuB)
CC(C)(O)/C=C/C(=O)[C@](C)(O)[C@H]1[C@H](O)C[C@@]2(C)[C@@H]3CC=C4[C@@H](CC[C@H](O)C4(C)C)[C@]3(CO)C(=O)C[C@]12C [deacetyl CuC] | acylate a wide range of substrates (e.g., CuD, CuI, and deacetyl CuC) |  | 
CC(C)(O)/C=C/C(=O)[C@](C)(O)[C@H]1[C@H](O)C[C@@]2(C)[C@@H]3CC=C4[C@@H](C=C(O)C(=O)C4(C)C)[C@]3(C)C(=O)C[C@]12C [CuI] |  | acylate a wide range of substrates (e.g., CuD, CuI, and deacetyl CuC) | 
CC(C)(O)/C=C/C(=O)[C@](C)(O)[C@H]1[C@H](O)C[C@@]2(C)[C@@H]3CC=C4[C@@H](C[C@H](O)C(=O)C4(C)C)[C@]3(C)C(=O)C[C@]12C [CuD] | acylate a wide range of substrates (e.g., CuD, CuI, and deacetyl CuC) |  | able to acetylate the cucurbitacin precursors CuD and CuI
